# From patent publication US6962909B2, “Treatment of neovascularization disorders with squalimine” (Genaera Corporation, priority 1995, dated 2005)
# “Also recorded” adds a separate entry of the source.
# Key:
# MTT (Table II) = type: cell-based
# Description: As set forth in Table II, which follows Table I, the activities of natural and synthetic aminosterols in the different assays vary. In light of the foregoing, it is now possible to screen for steroids with or without squalamine-like pharmacological activity.
# [1] = test system: Stage 59-60 Xenopus tadpoles; experiment: Xenopus tadpole assay; type: in vivo, Xenopus laevis; settings: 10 μg/ml in water; for Pharmacological response observed in tadpole: about 1 hour
# Description: A newly developed assay employing tadpoles, preferably Xenopus laevis Stages 59-60, were employed to study the effect of a compound by monitoring capillary occlusion in the tadpole's tail. […] The compounds of the invention affect the shape, viability and integrity of the embryonic tissues while not affecting the adult tissues, providing a powerful, highly specific screen. For example, substances that destroy all of the animal's epithelium, both adult and embryonic, could be regarded as toxic.
# In this assay, tadpoles are introduced into Petri dishes containing a solution of the test compound in distilled water, preferably about 100 ml. The preferred concentration of the test compound is from about 1 μg/ml to about 10 μg/ml. The volume of liquid is sufficient for the animal to swim freely and drink from the solution. Thus, the effect observed results from oral absorption and subsequent systemic distribution of the agent. If the volume of liquid is not sufficient to permit oral intake, the effects that are observed would result from absorption through the surface epithelium. Thus, this simple assay can identify if an compound has characteristics of oral availability.
# After an amount of time, typically about 60 minutes, the occlusion of blood flow through capillaries in the tadpole's tail are observed under an inverted microscope at a magnification of roughly 100×.
# The tadpole assay described above provides an advantageous way to determine the pharmacological targets of each steroid when introduced into a mammal, and to determine pharmacological categories into which synthetic compounds belong. In the assay, each of the steroids was dissolved in 100 ml of distilled water at a concentration of 10 μg/ml. Stage 59-60 Xenopus tadpoles were introduced and evaluated by light microscopy and gross observation 1 hour later.
# [2] = test system: PHA-stimulated human lymphocytes; experiment: Inhibition of mitogen-stimulated growth of human T-cells; type: cell-based; settings: 72 hours
# Method: Human heparinized blood, freshly collected, was introduced into tissue culture flasks containing 10 μg/ml phytohaemagglutinin (PHA) in RPMI medium with 10% FCS. Various purified steroids were introduced subsequently at concentrations of 1, 5, and 10 μg/ml. Cultures were incubated for 72 hours, after which time colcemid was added to 1 μg/ml. Cultures were maintained for an additional 2 hours, and cells collected. Mitotic figures were estimated using standard cytochemical techniques, following Giemsa staining.
# [3] = test system: vitelline capillaries of 3- to 5-day chick embryo; experiment: Chick embryo vitelline capillary regression assay; type: in vivo; set-up: key to Vascular reactivity (capillary regression): + = Vascular reactivity; 0 = No vascular reactivity; +/− = Equivocal reactivity; settings: for Vascular reactivity (capillary regression): 60 minutes
# Method: Using the chick embryo vitelline capillaries assay, compounds were tested for their ability to induce capillary regression. Each compound was applied in 0.1 ml of 15% Ficol 400 and PBS onto the embryo, and vascular regression was assessed after 60 minutes.
# The 3-day chick embryo consists of an embryonic disc from which numerous vessels emerge and return, forming a “figure 8”-shaped structure—the embryo in the center with vascular loops extending outward over both poles. […] Following a lag period of around 15 minutes, the constriction of continuity between capillary and secondary vessels, generally on the “venous” side, was observed. Continued pulsatile blood flow progressed, resulting in a “swelling” of the blind tube, followed by a pinching off of the remaining connection and formation of an enclosed vascular sac resembling a “blood island.” This process progressed until only the largest vessels remained intact.
# NHE2 = settings: cited from earlier work
# NHE1 = NHE1 (Homo sapiens, UniProt P19634); settings: cited from earlier work
# NHE3 = NHE3 (Rattus norvegicus, UniProt P26433); settings: cited from earlier work
# [4] = test system: human microvascular cells; experiment: Endothelial cord formation assay; type: cell-based
# Description: Endothelial cells have the capacity in vitro to form tubular aggregates resembling capillaries in various early stages of formation. This conversion occurs under relatively specific conditions, in which essential growth factors along with an effective substratum are provided. It has been shown that both the interaction of growth factors with the endothelial cell and its attachment to a substratum activate the NHE. The activation of this exchanger is believed to be required for subsequent morphologic transformation of the endothelial cell into a multicellular tubular structure.
# To assess the effect of compounds on the cord-like structures formed by human microvascular cells when plated in the presence of VGEF (Vascular Endothelial Growth Factor) and basic fibroblast growth factor on a collagen matrix, a standard cord formation assay was used.
# [5] = test system: Human ovarian carcinoma SKOV3; experiment: In vitro cell growth inhibition (assay of Baker et al.); type: cell-based
# Method: As set forth in Table 7 below, all malignant tumors evaluated in tissue culture, endothelial cells and vascular smooth muscle cells were sensitive to inhibition. Thus, compound 1436 has application in the control of growth factor dependent proliferation of many types of tissue.
# Using the assay described above, the anticancer effects of compound 1437 against several cancer lines was assessed.
# [6] = Fasting blood glucose in mice; type: in vivo
# Method: To study the effect of steroid administrator or the NHE responsible for secretion of insulin, several of the aminosterols from shark liver were administered to fasting mice. Male CD-1 mice were assigned to one of four treatment groups. Whole blood glucose was tested using glucometer (Lifescan Glucometer II and One Touch test strips). Statistical analysis was via one-way analysis of variance (ANOVA) followed by subsequent Bonferonni's t-test.
# B16 melanoma = experiment: Growth of B16 melanoma in C57B mice; type: in vivo; settings: subcutaneous administration
# Method: The growth of B16 melanoma in C57B mice is dependent upon neovascularization.
# Using the growth of B16 melanoma cells in C57B mice, a recognized model for the evaluation of inhibitors of angiogenesis on the growth of cancers, the effects of subcutaneous, intraperitoneal and oral administration of squalamine were evaluated.
# Animals were implanted with B16 melanoma followed by treatment with compound 1436 or 1256 administered in a combined schedule or separately. […] Thus, a combination of these two compounds achieves a therapeutic benefit in tumors dependent on neovascularization that may prevent metastatic spread.
# Mouse IV PK study = settings: in vivo
# Method: To assess clearance, a mouse IV PK study was performed for compound 319 and squalamine. The compound was administered i.v. and blood samples were taken every 10 minutes. The concentration of the administered steroid was determined by HPLC analysis.
# [7] = test system: L1210 lymphoblastic leukemia cells; experiment: Mouse model of L1210 leukemia
# Method: C57B mice were inoculated with L1210 lymphoblastic leukemia cells at an inoculum that causes leukemia in 100% of animals. Mice received compound 1436 at 1, 5, 10 mg/kg every 3 days intraperitoneally.
# Of particular interest is the hematological profile determined during the course of treatment. Animals were treated with cisplatin and compound 1436.
# P. aerug = experiment: Antibiotic activity, MIC
# S. aureus = experiment: Antibiotic activity, MIC; type: cell-based; settings: Staphylococcus aureus
# C. albicans = experiment: Antibiotic activity, MIC; settings: Candida albicans
# E. coli = experiment: Antibiotic activity, MIC; type: cell-based; settings: Escherichia coli
# [8] = mice with 5 × 10^5 L1210 cells ip, cisplatin 8 mg/kg ip, compound 1436 10 mg/kg ip q4d
# Chain of NHE3 (P26433 29-831): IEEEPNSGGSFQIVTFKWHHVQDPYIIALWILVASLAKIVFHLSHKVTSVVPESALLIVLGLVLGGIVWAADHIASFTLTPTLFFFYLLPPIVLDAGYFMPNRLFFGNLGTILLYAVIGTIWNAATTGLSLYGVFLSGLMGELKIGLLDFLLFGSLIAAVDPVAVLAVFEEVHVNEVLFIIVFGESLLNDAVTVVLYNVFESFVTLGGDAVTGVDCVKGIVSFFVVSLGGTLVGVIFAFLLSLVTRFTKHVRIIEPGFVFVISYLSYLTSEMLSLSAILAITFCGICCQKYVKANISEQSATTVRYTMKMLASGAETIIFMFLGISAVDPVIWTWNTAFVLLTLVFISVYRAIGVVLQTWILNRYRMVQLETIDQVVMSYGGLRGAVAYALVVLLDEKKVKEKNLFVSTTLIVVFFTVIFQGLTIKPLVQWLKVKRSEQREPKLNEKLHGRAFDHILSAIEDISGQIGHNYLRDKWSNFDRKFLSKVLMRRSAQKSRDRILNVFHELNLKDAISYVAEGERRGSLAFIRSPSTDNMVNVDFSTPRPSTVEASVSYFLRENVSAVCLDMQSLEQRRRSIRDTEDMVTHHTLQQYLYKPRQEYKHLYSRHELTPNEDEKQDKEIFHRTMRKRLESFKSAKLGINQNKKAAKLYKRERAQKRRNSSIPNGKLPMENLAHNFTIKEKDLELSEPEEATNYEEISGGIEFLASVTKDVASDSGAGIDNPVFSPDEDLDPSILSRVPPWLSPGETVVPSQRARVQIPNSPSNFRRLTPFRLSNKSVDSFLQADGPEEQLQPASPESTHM
# Chain of NHE1 (P19634 whole entry, species assumed): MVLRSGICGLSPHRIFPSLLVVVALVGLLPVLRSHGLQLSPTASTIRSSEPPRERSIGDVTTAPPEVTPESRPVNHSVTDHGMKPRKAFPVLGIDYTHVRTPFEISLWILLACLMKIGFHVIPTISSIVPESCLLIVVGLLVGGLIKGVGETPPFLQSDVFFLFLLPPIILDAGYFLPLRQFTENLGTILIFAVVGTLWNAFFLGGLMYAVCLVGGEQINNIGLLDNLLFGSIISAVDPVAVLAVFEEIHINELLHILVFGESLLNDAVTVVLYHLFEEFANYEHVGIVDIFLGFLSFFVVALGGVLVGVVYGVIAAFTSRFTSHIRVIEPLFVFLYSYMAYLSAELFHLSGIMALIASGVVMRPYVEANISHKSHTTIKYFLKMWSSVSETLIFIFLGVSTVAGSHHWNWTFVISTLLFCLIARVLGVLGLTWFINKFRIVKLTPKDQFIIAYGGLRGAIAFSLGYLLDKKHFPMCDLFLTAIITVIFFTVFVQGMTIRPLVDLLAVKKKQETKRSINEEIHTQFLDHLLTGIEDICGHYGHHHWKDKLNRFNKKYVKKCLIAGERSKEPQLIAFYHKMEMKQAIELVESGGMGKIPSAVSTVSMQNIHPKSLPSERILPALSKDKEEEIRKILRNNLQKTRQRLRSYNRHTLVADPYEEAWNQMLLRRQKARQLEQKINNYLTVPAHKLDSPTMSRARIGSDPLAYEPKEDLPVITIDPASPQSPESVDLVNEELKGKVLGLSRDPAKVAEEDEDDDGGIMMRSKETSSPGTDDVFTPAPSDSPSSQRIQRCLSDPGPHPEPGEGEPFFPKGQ
compound,measurement,setting,value
CC(CC[C@@H](OS(=O)(=O)O)C(C)C)[C@H]1CCC2C3C(CC[C@@]21C)[C@@]1(C)CC[C@H](NCCCNCCCCN)C[C@@H]1C[C@H]3O (stereo partly drawn) [drawing 164],MTT,MTT (Table II),32 µg/mL
CC(COS(=O)(=O)O)C(=O)CCC(C)[C@H]1CCC2C3C(CC[C@@]21C)[C@@]1(C)CC[C@H](NCCCNCCCCN)C[C@@H]1C[C@H]3O (stereo partly drawn) [Compound 1360],Pharmacological response observed in tadpole,[1],"Swelling and lysis of certain erythrocytes occurred, resulting in accumulation of nuclei within certain small vessels of the tail"
same,Pharmacological response observed in tadpole,[1]; listed as compound 1360,extensive vasocclusion occurred within 60 minutes throughout the tail
same,Inhibition of PHA-stimulated human lymphocytes,[2]; 1 μg/ml,5 % control
same,Inhibition of PHA-stimulated human lymphocytes,[2]; 5 μg/ml,5 % control
same,Inhibition of PHA-stimulated human lymphocytes,[2]; 10 μg/ml,5 % control
same,Vascular reactivity (capillary regression),[3]; 1 μg applied,0
same,Effect on blood circulating through the embryonic vessels,[3]; within 20 minutes of application,exhibited a brighter red color
dimethylamiloride [DMA],Ki,NHE2,0.7 µM
same,Ki,NHE1,100 nM
same,Ki,NHE3,11 µM
CC(C)CCCC(C)[C@H]1CCC2C3CC[C@H]4C[C@@H](NCCCNCCCCNCCCN)CC[C@]4(C)C3CC[C@@]21C (stereo partly drawn) [drawing 96],MTT,MTT (Table II),19 µg/mL
same,"Cord Formation, Minimum Effective Concentration",[4],10 µg/mL
CS(=O)(=O)c1cc(C(=O)NC(=N)N)ccc1N1CCCCC1 [(3-methylsulfonyl-4-piperidinobenzoyl) guanidine methanesulfonate],Ki,NHE2,5 µM
same,Ki,NHE1,160 nM
same,Ki,NHE3,650 µM
CC(CCC(CO)(OS(=O)(=O)O)C(C)C)[C@H]1CCC2C3C(CC[C@@]21C)[C@@]1(C)CC[C@H](NCCCNCCCCN)C[C@@H]1C[C@H]3O (stereo partly drawn) [Compound 1437],Pharmacological response observed in tadpole,[1],"Epithelium covering the embryonic portions of the animal, such as the tail and antennae, began to slough off in sheets; also recorded: the larval skin was observed to shed off in a sheet"
same,Inhibition of PHA-stimulated human lymphocytes,[2]; 10 μg/ml,10 % control
same,Anticancer activity,[5],exhibit anticancer activity
same,Effect on blood glucose,"[6]; intravenous, 1436 in D5W (5% glucose), 1437 in water",caused hyperglycemia in mice
same,Fasting Blood Glucose Mean + SEM,"[6]; male CD-1 mice, 2 × 10 mg/kg i.v. (total 20 mg/kg), overnight fast, blood 30 min. after 2d dose, 1437 and 1256 in H2O, 1436 in D5W",82 ± 15.3 mg/dL
N=C(N)NC(=O)c1nc(Cl)c(N)nc1N [Amiloride],Ki,NHE2,3 µM
same,Ki,NHE3,100 µM
CC(CCC(=O)O)[C@H]1CCC2C3CC[C@H]4C[C@@H](NCCCNCCCCN)CC[C@]4(C)C3CC[C@@]21C (stereo partly drawn) [Compound 319],Pharmacological category in tadpole assay (similarity to a reference steroid),[1],common vascular occlusive effect
same,Control of B16 melanoma,B16 melanoma,achieved control of B16 in C57B mice to an extent almost comparable to squalamine
same,Vascular reactivity (capillary regression),[3]; 0.001 μg applied,+/−
same,Vascular reactivity (capillary regression),[3]; 0.01 μg applied,+
same,Vascular reactivity (capillary regression),[3]; 0.1 μg applied,+
same,Vascular reactivity (capillary regression),[3]; 1 μg applied,+
same,Vascular reactivity (capillary regression),[3]; 10 μg applied,+
same,half-life,Mouse IV PK study,~14 min
same,Effect on endothelial cord formation,[4]; 0.01 μg/ml,−
same,Effect on endothelial cord formation,[4]; 0.1 μg/ml,+
same,Effect on endothelial cord formation,[4]; 1.0 μg/ml,+
same,Effect on endothelial cord formation,[4]; 10.0 μg/ml,+
"N.N.[Cl][Pt][Cl] [Cisplatin, reference compound]",Hematological profile during treatment,[7]; by day 28,developed a profound anemia by day 28
same,"RBC, Early Time",[7]; [8],9.4 10^6/mm^3
same,"RBC, Late Time",[7]; [8],1.5 10^6/mm^3
same,"WBC, Early Time",[7]; [8],8.1 10^3/mm^3
same,"WBC, Late Time",[7]; [8],18.1 10^3/mm^3
CC(CC[C@@H](OS(=O)(=O)O)C(C)C)[C@H]1CCC2C3C(CC[C@@]21C)[C@@]1(C)CC[C@H](NCCCNCCCCNCCCN)C[C@@H]1C[C@H]3O (stereo partly drawn) [drawing 170],MTT,MTT (Table II),67 µg/mL
CC(CCC(=O)O)[C@H]1CCC2C3CC[C@H]4C[C@@H](NCCCNCCCCN)CC[C@]4(C)C3CC[C@@]21C (stereo partly drawn),MIC,P. aerug,32 µg/mL
same,MIC,S. aureus,64 µg/mL
same,MIC,C. albicans,8 µg/mL
same,MIC,E. coli,32 to 64 µg/mL
"CCCN(C)c1nc(N)c(C(=O)N=C(N)N)nc1Cl [MPA, methylpropylamiloride]",Ki,NHE2,5 µM
same,Ki,NHE1,80 nM
same,Ki,NHE3,10 µM
COC(=O)CCC(C)[C@H]1CCC2C3C(CC[C@@]21C)[C@@]1(C)CC[C@@H](NCCCNCCCCN)C[C@@H]1C[C@H]3O (stereo partly drawn),MIC,P. aerug,64 µg/mL
same,MIC,S. aureus,4 µg/mL
same,MIC,C. albicans,32 µg/mL
same,MIC,E. coli,64 µg/mL
CC(CC[C@@H](OS(=O)(=O)O)C(C)C)[C@H]1CCC2C3C(CC[C@@]21C)[C@@]1(C)CC[C@H](NCCCNCCCCN)C[C@@H]1C[C@H]3O (stereo partly drawn) [drawing 43],MIC,P. aerug,16 µg/mL
same,MIC,S. aureus,0.5 to 1 µg/mL
same,MIC,C. albicans,8 µg/mL
same,MIC,E. coli,2 to 4 µg/mL
COC(=O)CCC(C)[C@H]1CCC2C3C(CC[C@@]21C)[C@@]1(C)CCC(NCCCNCCCCNCCCN)C[C@@H]1C[C@H]3O (stereo partly drawn),MIC,P. aerug,64 µg/mL
same,MIC,S. aureus,4 µg/mL
same,MIC,C. albicans,64 µg/mL
same,MIC,E. coli,32 µg/mL
